From patent US11608359B2, “Compounds and methods for treating tight junction permeabtility” (9 Meters Biopharma, Inc., priority 2018, dated 2023)
Where no end group is shown, it is not given here.

How the values were obtained:
[1] = test system: tight junctions; assay: activity as tight junction regulators; settings: for activity as tight junction regulator: peptide fragment alone
[2] = clinical trials, particularly lower doses (e.g., 0.5 mg dose); cited from earlier work

## GVLVQPG [Larazotide-derived fragment missing N-terminal glycine]
[1]
  activity as tight junction regulator: inactive

## VLVQP (Synthetic polymer.)
[1]
  activity as tight junction regulator: inactive

## VLVQPG
[1]
  activity as tight junction regulator: inactive

## GGVLVQPG [Larazotide]
[1]; mixed with the two fragments GVLVQPG and VLVQPG
  activity of full length Larazotide as tight junction regulator: completely abolished
[2]
  benefit at reducing CeD symptoms: significant benefit

## GVLVQP (Synthetic polymer.)
[1]
  activity as tight junction regulator: inactive
